What all share (assay type): cell-based
The test system of test [1] is TdTomato-modified T. cruzi (CL strain) in Vero cells. The experiment in a line: In vitro IC50 measurement of T. cruzi amastigote killing using TdTomato-modified T. cruzi (CL strain). Particulars: Trypanosoma cruzi, 72 h, fluorescence, read-out: IC50: I Org. amastigote Growth T. cruzi CL TdTomato, 3 d. The method, boiled down:
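Vero cells were infected with tdTomato-expressing CL-strain parasites and dosed at 5 uM–5 nM. Fluorescence (ex 544/em 612 nm) was read at day 0 and again after 72 h at 37 °C, with day 0 values subtracted. IC50 and IC90 came from nonlinear regression.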

Test [2] has as its system bloodstream forms of T. b. rhodesiense STIB 900. The test is described as follows: T. brucei rhodesiense STIB 900 growth inhibition assay. Particulars: Trypanosoma brucei, 72 h. The method, boiled down:
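Bloodstream-form STIB 900 (10^4/well) were cultured in supplemented MEM with 15% horse serum and compound (90 to 0.123 μg/ml, 3-fold steps) for 72 h at 37 °C, 5% CO2. Viability was read by Alamar Blue fluorescence (ex 536/em 588 nm) after a further 2-4 h.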

The subject of test [3] is Trypanosoma brucei rhodesiense STIB 900 strain. The experiment in a line: Trypanosoma brucei rhodesiense STIB 900 screening assay. Particulars: STIB 900 bloodstream forms, 72 h, Alamar Blue, protocol of Example 114, read-out: Swiss TPH T b rhodesiense IC50. On the procedure: Example 114. Trypanosoma brucei rhodesiense STIB 900 Screening Assay Procedure
The Trypanosoma brucei rhodesiense STIB 900 strain was isolated in 1982 from a human patient in Tanzania and after several mouse passages cloned and adapted to axenic culture conditions (Baltz, et al., EMBO Journal 4: 1273-1277 (1985); Thuita, et al., Acta Tropica 108: 6-10 (2008)). Minimum Essential Medium (50 μL) supplemented with 25 mM HEPES, 1 g/L additional glucose, 1% MEM non-essential amino acids (100×), 0.2 mM 2-mercaptoethanol, 1 mM Na-pyruvate and 15% heat inactivated horse serum was added to each well of a 96-well microtiter plate. Serial drug dilutions of seven 3-fold steps covering a range from 90 to 0.123 μg/mL were prepared. Then 10^4 bloodstream forms of T. b. rhodesiense STIB 900 in 50 μL was added to each well and the plate incubated at 37° C. under a 5% CO2 atmosphere for 72 h. 10 μL Alamar Blue (resazurin, 12.5 mg in 100 mL double-distilled water) was then added to each well and incubation continued for a further 2-4 h (Raz, et al., Acta Tropica 68: 139-47 (1997)). Then the plates were read with a Spectramax Gemini XS microplate fluorometer (Molecular Devices Corporation, Sunnyvale, Calif., USA) using an excitation wavelength of 536 nm and an emission wavelength of 588 nm. Data were transferred into the graphic program Softmax Pro (Molecular Devices), which calculated IC50 values.

The test system of test [4] is IL3000 T. congolense (drug sensitive) strain. The experiment in a line: In vitro Alamar Blue 72 h drug sensitivity assay for T. congolense. The method, boiled down:
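Bloodstream-form trypanosomes in HMI medium with 20% bovine serum, exposed to compound for 69 h at 34 °C, 5% CO2, then resazurin for 3 h more. Fluorescence read at 536/588 nm. IC50 from 11-point sigmoidal dose-response curves, at least three independent runs.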

In test [5] the test system is L. infantum MHOM/MA(BE)/67 amastigotes in primary peritoneal mouse macrophages. The experiment in a line: Leishmania infantum intracellular amastigote assay in mouse macrophages. Particulars: Macrophage, 120 h. The procedure, abridged: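 Amastigotes harvested from infected hamster spleen infected primary peritoneal mouse macrophages (5×10^5 amastigotes/well, 2 h, 37 °C). Compounds then present 5 d at 37 °C, 5% CO2. Parasite burden counted by microscopy after Giemsa staining, as % of untreated controls; IC50 from sigmoidal variable-slope fit.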

The test system of test [6] is bloodstream-form trypanosome T. brucei brucei 427 strain. The experiment in a line: Trypanosoma brucei brucei high-throughput screening assay (resazurin). As to the method:
Example 105. Trypanosoma brucei brucei High-Throughput Screening Assay Procedure
All experiments were conducted with the bloodstream-form trypanosome T. brucei brucei 427 strain obtained from Seattle Biomedical Research Institute (Seattle, Wash.). Parasites were cultured in T-25 vented cap flasks and kept in humidified incubators at 37° C. and 5% CO2. The parasite culture media was complete HMI-9 medium containing 10% FBS, 10% Serum Plus medium and penicillin/streptomycin. To ensure log growth phase, trypanosomes were sub-cultured at appropriate dilutions every 2-3 days. Approximately 50 microliters of log phase cultures were diluted 1:10 in HMI-9 and 10 μL of the diluted culture was removed and counted using a hemocytometer to determine parasite concentration. Parasites were diluted by addition of an appropriate volume of HMI-9 to achieve a final parasite concentration of 2×10^5/mL. Compounds of the invention to be tested were serially diluted in DMSO and 0.5 μL added to 49.5 μL HMI-9 in triplicate 96-well plates using a Biomek NX liquid handler. Parasites from the diluted stock were added to each well (50 μL) using a Multidrop 384 dispenser to give a final concentration of 1.0×10^5/ml parasites in […] for DMSO. Trypanosomes were incubated with compounds for 72 hrs at 37° C. with 5% CO2. Resazurin (20 μL of 12.5 mg/ml stock) from Sigma-Aldrich was added to each well and plates were incubated for an additional 2-4 hrs. Assay plates were read using an EnVision plate reader at an excitation wavelength of 544 nm and emission of 590 nm. Triplicate data points were averaged to generate sigmoidal dose response curve and determine IC50 values using XLfit curve fitting software from IDBS (Guildford, UK).

Where [7] appears, read: bloodstream forms, Alamar Blue, protocol of Example 110, read-out: IC50: I Org. Growth T. brucei rhodesiense STIB 900, 3 d.
Where [8] appears, read: Trypanosoma congolense; bloodstream form, 69 h + 3 h resazurin, 34° C.; classes A-C; read-out: IC50: I Org. Growth T. congolense IL-3000, 3 d.
[9] abbreviates: amastigotes in primary peritoneal mouse macrophages, 5 d, Giemsa staining, read-out: Inhibition of Organism Growth in Leishmania infantum MHOM/MA/BE/67, 5 d.
Where [10] appears, read: bloodstream form, 72 hrs incubation, resazurin, read-out: IC50: I Org. Growth T. brucei brucei SBRI 427, 3 d.
The mark [11] stands for this setting: read-out: IC50: I Org. Growth T. brucei rhodesiense STIB 900, 3 d [uM].
The mark [12] stands for this setting: 72 h, read-out: IC50: I Org. Growth T. brucei brucei SBRI 427, 3 d [uM].
[13] abbreviates: read-out: Inhibition of Organism Growth in Leishmania infantum MHOM/MA/BE/67, 5 d [uM].
Setting [14] is: Trypanosoma congolense; read-out: inhibition of T. congolense IL-3000 growth at a concentration of 1.0 μM (classes D, E).

Where two headings read alike, the source gives them in different places.

Turning to `Cc1cccc(-n2cc(C(=O)Nc3ccc4c(c3)B(O)OC4)nn2)n1` [Example 57, N-(1-hydroxy-1,3-dihydrobenzo[c][1,2]oxaborol-6-yl)-1-(6-methylpyridin-2-yl)-1H-1,2,3-triazole-4-carboxamide], the IC50 in test [1] was below 600 nM; in test [2] (setting [7]) it was below 0.1 µM; in test [3], below 100 nM; in test [4] (setting [8]), below 100 nM; in test [5] (setting [9]), below 3 µM.

Regarding `O=C(Nc1ccc2c(c1)B(O)OC2)c1cn(-c2cccnc2)nn1` [Example 63, N-(1-hydroxy-1,3-dihydrobenzo[c][1,2]oxaborol-6-yl)-1-(pyridin-3-yl)-1H-1,2,3-triazole-4-carboxamide], the IC50 in test [1] was 1100 to 10000 nM; in test [2] (setting [7]), 0.1 to 0.3 µM; in test [3], 100 to 250 nM; in test [4] (setting [8]) it was below 100 nM; in test [5] (setting [9]) it was 20 to 100 µM.

Consider `COc1cccc(-n2nnc(C(=O)Nc3ccc4c(c3)B(O)OC4)c2C)n1` [Example 65, N-(1-hydroxy-1,3-dihydrobenzo[c][1,2]oxaborol-6-yl)-1-(6-methoxypyridin-2-yl)-5-methyl-1H-1,2,3-triazole-4-carboxamide], for which the IC50 was below 600 nM in test [1]; below 0.1 µM in test [2] (setting [7]); below 100 nM in test [3]; below 100 nM in test [4] (setting [8]); below 3 µM in test [5] (setting [9]).

In the case of `Cn1nc(C(=O)Nc2ccc3c(c2)B(O)OC3)nc1-c1ccccn1` [Example 80, N-(1-hydroxy-1,3-dihydrobenzo[c][1,2]oxaborol-6-yl)-1-methyl-5-(pyridin-2-yl)-1H-1,2,4-triazole-3-carboxamide], the IC50 in test [2] (setting [7]) is 0.1 to 0.3 µM; in test [6] (setting [10]), below 0.075 µM; in test [4] (setting [8]), 100 to 300 nM; in test [5] (setting [9]) it was below 3 µM.

`Cc1cccc(-n2nnc(C(=O)Nc3ccc4c(c3)B(O)OC4)c2C)n1` [Example 81, N-(1-hydroxy-1,3-dihydrobenzo[c][1,2]oxaborol-6-yl)-5-methyl-1-(6-methylpyridin-2-yl)-1H-1,2,3-triazole-4-carboxamide]: the IC50 in test [1] was 1100 to 10000 nM; in test [2] (setting [7]), 0.1 to 0.3 µM; in test [3] it was 100 to 250 nM; in test [4] (setting [8]), below 100 nM; in test [5] (setting [9]), 3 to 19.9 µM.

`Cc1c(C(=O)Nc2ccc3c(c2)B(O)OC3)nnn1-c1ccc(Cl)cc1` [Example 90, 1-(4-chlorophenyl)-N-(1-hydroxy-1,3-dihydrobenzo[c][1,2]oxaborol-6-yl)-5-methyl-1H-1,2,3-triazole-4-carboxamide]: the IC50 in test [6] (setting [10]) fell in the range of 0.075 to 0.15 µM.

`O=C(Nc1ccc2c(c1)B(O)OC2)c1nc(-c2ccccn2)n[nH]1` [Example 94, N-(1-hydroxy-1,3-dihydrobenzo[c][1,2]oxaborol-6-yl)-3-(pyridin-2-yl)-1H-1,2,4-triazole-5-carboxamide]: the IC50 was below 0.1 µM in test [2] (setting [11]), below 0.075 µM in test [6] (setting [12]) and 3 to 19.9 µM in test [5] (setting [13]). The inhibition at 1 µM in test [4] (Trypanosoma congolense, read-out: inhibition of T. congolense IL-3000 growth at a concentration of 1.0 μM (classes D, E)) is above 75%.

For `Cn1nc(-c2ccccn2)nc1C(=O)Nc1ccc2c(c1)B(O)OC2` [Example 95, N-(1-hydroxy-1,3-dihydrobenzo[c][1,2]oxaborol-6-yl)-1-methyl-3-(pyridine-2-yl)-1H-1,2,4-triazole-5-carboxamide], in test [6] (setting [12]), the IC50 lay within 0.151 to 10 µM.

Take `Cn1nc(-c2ccccc2)nc1C(=O)Nc1ccc2c(c1)B(O)OC2` [Example 96, N-(1-hydroxy-1,3-dihydrobenzo[c][1,2]oxaborol-6-yl)-1-methyl-3-phenyl-1H-1,2,4-triazole-5-carboxamide]: in test [6] (setting [10]), the IC50 was 0.151 to 10 µM. For the same molecule, the inhibition at 1 µM in test [4] (setting [14]) is below 75%.

Turning to `Cn1nc(-c2ccc(F)cc2)nc1C(=O)Nc1ccc2c(c1)B(O)OC2` [Example 97, 3-(4-fluorophenyl)-N-(1-hydroxy-1,3-dihydrobenzo[c][1,2]oxaborol-6-yl)-1-methyl-1H-1,2,4-triazole-5-carboxamide], the IC50 in test [6] (setting [10]) lay within 0.151 to 10 µM. The inhibition at 1 µM in test [4] (setting [14]) was below 75%.

For `O=C(Nc1ccc2c(c1)B(O)OC2)c1nc(-c2cccnc2)n[nH]1` [Example 98, N-(1-hydroxy-1,3-dihydrobenzo[c][1,2]oxaborol-6-yl)-3-(pyridin-3-yl)-1H-1,2,4-triazole-5-carboxamide], the IC50 in test [6] (setting [12]) was in the range of 0.151 to 10 µM.

As for `O=C(Nc1ccc2c(c1)B(O)OC2)c1nc(-c2ccc(F)cc2)n[nH]1` [Example 99, 3-(4-Fluorophenyl)-N-(1-hydroxy-1,3-dihydrobenzo[c][1,2]oxaborol-6-yl)-1H-1,2,4-triazole-5-carboxamide], the IC50 was 0.1 to 0.3 µM in test [2] (setting [11]), below 0.075 µM in test [6] (setting [12]) and below 3 µM in test [5] (setting [13]).

In the case of `Cn1nc(C(=O)Nc2ccc3c(c2)B(O)OC3)nc1-c1ccc(F)cc1` [Example 100, 5-(4-Fluorophenyl)-N-(1-hydroxy-1,3-dihydrobenzo[c][1,2]oxaborol-6-yl)-1-methyl-1H-1,2,4-triazole-3-carboxamide], the IC50 in test [6] (setting [10]) was in the range of 0.075 to 0.15 µM.

On to `O=C(Nc1ccc2c(c1)B(O)OC2)c1nc(-c2ccccc2)n[nH]1` [Example 101, N-(1-hydroxy-1,3-dihydrobenzo[c][1,2]oxaborol-6-yl)-3-phenyl-1H-1,2,4-triazole-5-carboxamide], for which, in test [6] (setting [10]), the IC50 was 0.075 to 0.15 µM. Moreover, the inhibition at 1 µM in test [4] (setting [14]) was above 75%.

With `Cn1nc(C(=O)Nc2ccc3c(c2)B(O)OC3)nc1-c1ccccc1` [Example 102, N-(1-Hydroxy-1,3-dihydrobenzo[c][1,2]oxaborol-6-yl)-1-methyl-5-phenyl-1H-1,2,4-triazole-3-carboxamide], the IC50 in test [2] (setting [7]) was below 0.1 µM; in test [6] (setting [10]) it was 0.075 to 0.15 µM; in test [5] (setting [9]), below 3 µM.

Take `Cn1nc(C(=O)Nc2ccc3c(c2)B(O)OC3(C)C)nc1-c1ccccc1` [Example 103, N-(1-hydroxy-3,3-dimethyl-1,3-dihydrobenzo[c][1,2]oxaborol-6-yl)-1-methyl-5-phenyl-1H-1,2,4-triazole-3-carboxamide]: the IC50 in test [2] (setting [7]) is 0.31 to 10 µM; in test [3], below 100 nM; in test [5] (setting [9]), 3 to 19.9 µM.

For the origin of these results see US11691992B2 (Anacor Pharmaceuticals, Inc., priority 2017, dated 2023).
